Reference: article PMC5218480 (PLoS ONE, 2017)

Test system: MV-4-11 cells
Test: Gene expression microarray analysis (Affymetrix PrimeView) and GSEA
Type: cell-based, human
Design: RFU PODN (11730768_x_at) / Fold change /veh PODN (11730768_x_at) / RFU LINC00158 (11744669_a_at) / Fold change /veh LINC00158 (11744669_a_at) / RFU DUSP10 (11751237_a_at) / Fold change /veh DUSP10 (11751237_a_at) / RFU ID3 (11757404_x_at) / Fold change /veh ID3 (11757404_x_at) / RFU PLEKHG5 (11737974_s_at) / Fold change /veh PLEKHG5 (11737974_s_at) / RFU LRRC4B (11730491_at) / Fold change /veh LRRC4B (11730491_at) / RFU GIMAP4 (11747438_a_at) / Fold change /veh GIMAP4 (11747438_a_at) / RFU KRT8 (11758183_x_at) / Fold change /veh KRT8 (11758183_x_at) / RFU CNN1 (11734310_a_at) / Fold change /veh CNN1 (11734310_a_at) / RFU VPS37D (11726825_at) / Fold change /veh VPS37D (11726825_at) / RFU C10orf10 (11716522_x_at) / Fold change /veh C10orf10 (11716522_x_at) / RFU KIR2DL2 /// KIR2DL4 /// KIR2DL5A /// KIR2DL5B /// KIR2DS1 /// KIR2DS2 /// KIR2DS3 /// KIR2DS4 /// KIR3DL3 /// KIR3DL3 /// KIR3DS1 (11738374_at) / Fold change /veh KIR2DL2 /// KIR2DL4 /// KIR2DL5A /// KIR2DL5B /// KIR2DS1 /// KIR2DS2 /// KIR2DS3 /// KIR2DS4 /// KIR3DL3 /// KIR3DL3 /// KIR3DS1 (11738374_at) / RFU C1QL1 (11718748_at) / Fold change /veh C1QL1 (11718748_at) / RFU TMPRSS4 (11747572_a_at) / Fold change /veh TMPRSS4 (11747572_a_at) / RFU HAMP (11756126_x_at) / Fold change /veh HAMP (11756126_x_at) / RFU RNFT2 (11725882_a_at) / Fold change /veh RNFT2 (11725882_a_at) / RFU NR4A2 (11747474_a_at) / Fold change /veh NR4A2 (11747474_a_at) / RFU ABCC12 (11746883_a_at) / Fold change /veh ABCC12 (11746883_a_at) / RFU TMEM136 (11760407_x_at) / Fold change /veh TMEM136 (11760407_x_at) / RFU CLDN22 /// WWC2 (11732394_at) / Fold change /veh CLDN22 /// WWC2 (11732394_at) / RFU HLA-DPB1 (11760878_x_at) / Fold change /veh HLA-DPB1 (11760878_x_at) / RFU SPINT1 (11716480_a_at) / Fold change /veh SPINT1 (11716480_a_at) / RFU GAP43 (11754022_s_at) / Fold change /veh GAP43 (11754022_s_at) / RFU A4GNT (11735810_at) / Fold change /veh A4GNT (11735810_at) / RFU PRB3 (11715151_x_at) / Fold change /veh PRB3 (11715151_x_at) / RFU TUBB4B (11761932_at) / Fold change /veh TUBB4B (11761932_at) / RFU CAPN14 (11732068_a_at) / Fold change /veh CAPN14 (11732068_a_at) / RFU TMCC2 (11721928_a_at) / Fold change /veh TMCC2 (11721928_a_at) / RFU IRGQ (11745062_a_at) / Fold change /veh IRGQ (11745062_a_at) / RFU FAM174B (11720279_a_at) / Fold change /veh FAM174B (11720279_a_at) / RFU TMPRSS4 (11748680_a_at) / Fold change /veh TMPRSS4 (11748680_a_at) / RFU FAM212B (11763350_a_at) / Fold change /veh FAM212B (11763350_a_at) / RFU PLEKHG5 (11743358_a_at) / Fold change /veh PLEKHG5 (11743358_a_at) / RFU ZSCAN30 (11745921_a_at) / Fold change /veh ZSCAN30 (11745921_a_at) / RFU CMKLR1 (11741424_a_at) / Fold change /veh CMKLR1 (11741424_a_at) / RFU LOC101060620 /// MAPK8IP1 (11723275_at) / Fold change /veh LOC101060620 /// MAPK8IP1 (11723275_at) / RFU SPTSSB (11747773_x_at) / Fold change /veh SPTSSB (11747773_x_at) / RFU PRSS12 (11739890_at) / Fold change /veh PRSS12 (11739890_at) / RFU BIN1 (11741810_x_at) / Fold change /veh BIN1 (11741810_x_at) / RFU WNT11 (11732464_a_at) / Fold change /veh WNT11 (11732464_a_at) / RFU C10orf10 (11716521_a_at) / Fold change /veh C10orf10 (11716521_a_at) / RFU C5orf56 (11738089_at) / Fold change /veh C5orf56 (11738089_at) / RFU CYB561 (11721691_x_at) / Fold change /veh CYB561 (11721691_x_at) / RFU ANKRD19P (11752326_a_at) / Fold change /veh ANKRD19P (11752326_a_at) / RFU OR2T12 /// OR2T33 /// OR2T8 (11738714_s_at) / Fold change /veh OR2T12 /// OR2T33 /// OR2T8 (11738714_s_at) / RFU VCAN (11748164_a_at) / Fold change /veh VCAN (11748164_a_at) / RFU JSRP1 (11732532_at) / Fold change /veh JSRP1 (11732532_at) / RFU KRTAP10-11 (11738290_x_at) / Fold change /veh KRTAP10-11 (11738290_x_at) / RFU MYO3A (11730013_a_at) / Fold change /veh MYO3A (11730013_a_at) / RFU EBF3 (11725865_a_at) / Fold change /veh EBF3 (11725865_a_at) / RFU CAMK2N1 (11719241_x_at) / Fold change /veh CAMK2N1 (11719241_x_at) / RFU C5orf56 (11738088_a_at) / Fold change /veh C5orf56 (11738088_a_at) / RFU OLFML3 (11715873_a_at) / Fold change /veh OLFML3 (11715873_a_at) / RFU LOC100653217 /// NTM (11731650_a_at) / Fold change /veh LOC100653217 /// NTM (11731650_a_at) / RFU MAPK11 (11762145_a_at) / Fold change /veh MAPK11 (11762145_a_at) / RFU FIZ1 (11724087_x_at) / Fold change /veh FIZ1 (11724087_x_at) / RFU OASL (11726364_x_at) / Fold change /veh OASL (11726364_x_at) / RFU SOX15 (11748057_x_at) / Fold change /veh SOX15 (11748057_x_at) / RFU CD79A (11719716_a_at) / Fold change /veh CD79A (11719716_a_at) / RFU HIST1H1D (11736915_at) / Fold change /veh HIST1H1D (11736915_at) / RFU CASKIN2 (11723855_a_at) / Fold change /veh CASKIN2 (11723855_a_at) / RFU LOC730098 (11760151_x_at) / Fold change /veh LOC730098 (11760151_x_at) / RFU OR4N2 (11742367_at) / Fold change /veh OR4N2 (11742367_at) / RFU PRRT2 (11749266_a_at) / Fold change /veh PRRT2 (11749266_a_at) / RFU SNX32 (11753110_a_at) / Fold change /veh SNX32 (11753110_a_at) / RFU CDHR5 (11726645_a_at) / Fold change /veh CDHR5 (11726645_a_at) / RFU RCAN1 (11760418_a_at) / Fold change /veh RCAN1 (11760418_a_at) / RFU FAM167A (11723789_a_at) / Fold change /veh FAM167A (11723789_a_at) / RFU FAM26E (11764081_at) / Fold change /veh FAM26E (11764081_at) / RFU ISYNA1 (11749810_s_at) / Fold change /veh ISYNA1 (11749810_s_at) / RFU ACY1 (11761880_at) / Fold change /veh ACY1 (11761880_at) / RFU 11764098_at / Fold change /veh 11764098_at / RFU SAMD14 (11745864_x_at) / Fold change /veh SAMD14 (11745864_x_at) / RFU NPB (11741838_a_at) / Fold change /veh NPB (11741838_a_at) / RFU TMPRSS6 (11731388_a_at) / Fold change /veh TMPRSS6 (11731388_a_at) / RFU KRTAP10-2 (11738614_at) / Fold change /veh KRTAP10-2 (11738614_at) / RFU ARHGAP8 /// PRR5-ARHGAP8 (11727945_x_at) / Fold change /veh ARHGAP8 /// PRR5-ARHGAP8 (11727945_x_at) / RFU KRTAP5-7 /// NADSYN1 (11734609_at) / Fold change /veh KRTAP5-7 /// NADSYN1 (11734609_at) / RFU RASL12 (11751679_a_at) / Fold change /veh RASL12 (11751679_a_at) / RFU CDKN2B (11736163_a_at) / Fold change /veh CDKN2B (11736163_a_at) / RFU PRF1 (11729649_at) / Fold change /veh PRF1 (11729649_at) / RFU, ZNF638 /// ZNF638-IT1 / Fold change vs veh, ZNF638 /// ZNF638-IT1 / RFU, PANK3 / Fold change vs veh, PANK3 / RFU, SH3YL1 / Fold change vs veh, SH3YL1 / RFU, ZEB2 / Fold change vs veh, ZEB2 / RFU, NRIP1 / Fold change vs veh, NRIP1 / RFU, PTTG1IP / Fold change vs veh, PTTG1IP / RFU, CAPN2 / Fold change vs veh, CAPN2 / RFU, MED14 / Fold change vs veh, MED14 / RFU, SNORA58 / Fold change vs veh, SNORA58 / RFU, C1orf63 / Fold change vs veh, C1orf63 / RFU, LRRFIP1 / Fold change vs veh, LRRFIP1 / RFU, NDUFAF7 / Fold change vs veh, NDUFAF7 / RFU, SLC12A2 / Fold change vs veh, SLC12A2 / RFU, IBTK / Fold change vs veh, IBTK / RFU, ESF1 / Fold change vs veh, ESF1 / Fold change vs veh, TMEM50B / RFU, TAOK1 / Fold change vs veh, TAOK1 / RFU, ACBD3 / Fold change vs veh, ACBD3 / RFU, TMA16 / Fold change vs veh, TMA16 / RFU, RWDD3 / Fold change vs veh, RWDD3 / RFU, BCAT1 / Fold change vs veh, BCAT1 / RFU, EDEM3 / Fold change vs veh, EDEM3 / RFU, TMEM33 / Fold change vs veh, TMEM33 / RFU, WDR75 / Fold change vs veh, WDR75 / RFU, AHCTF1 / Fold change vs veh, AHCTF1 / RFU, TFRC / Fold change vs veh, TFRC / RFU, ZDHHC17 / Fold change vs veh, ZDHHC17 / RFU, NOM1 / Fold change vs veh, NOM1 / RFU, ARL8B / Fold change vs veh, ARL8B / RFU, ZBTB11 / Fold change vs veh, ZBTB11 / RFU, TAMM41 / Fold change vs veh, TAMM41 / RFU, KIAA1704 /// LOC100996395 / Fold change vs veh, KIAA1704 /// LOC100996395 / RFU, ING1 / Fold change vs veh, ING1 / RFU, TRMT61B / Fold change vs veh, TRMT61B / RFU, FUBP3 / Fold change vs veh, FUBP3 / RFU, TP53 / Fold change vs veh, TP53 / RFU, TNKS2 / Fold change vs veh, TNKS2 / RFU, ZFP14 / Fold change vs veh, ZFP14 / RFU, ACTR2 / Fold change vs veh, ACTR2 / RFU, PPP3R1 / Fold change vs veh, PPP3R1 / RFU, PIK3R1 / Fold change vs veh, PIK3R1 / RFU, HNRNPA1 / Fold change vs veh, HNRNPA1 / RFU, RNF170 / Fold change vs veh, RNF170 / RFU, ZNF28 / Fold change vs veh, ZNF28 / RFU, RNGTT / Fold change vs veh, RNGTT / RFU, OGT / Fold change vs veh, OGT / RFU, BRD1 / Fold change vs veh, BRD1 / RFU, MARS / Fold change vs veh, MARS / RFU, ZNF655 / Fold change vs veh, ZNF655 / RFU, FAHD1 / Fold change vs veh, FAHD1 / RFU, BDP1 / Fold change vs veh, BDP1 / RFU, LRRCC1 / Fold change vs veh, LRRCC1 / RFU, ARID1A / Fold change vs veh, ARID1A / RFU, ZNF146 / Fold change vs veh, ZNF146 / RFU, ZNF330 / Fold change vs veh, ZNF330 / RFU, GPN3 / Fold change vs veh, GPN3 / RFU, C9orf123 / Fold change vs veh, C9orf123 / RFU, N4BP2L2 / Fold change vs veh, N4BP2L2 / RFU, ARFIP1 / Fold change vs veh, ARFIP1 / RFU, FAM179B / Fold change vs veh, FAM179B / RFU, BCL10 / Fold change vs veh, BCL10 / RFU, UHRF1BP1L / Fold change vs veh, UHRF1BP1L / RFU, BET1 / Fold change vs veh, BET1 / RFU, CNOT2 / Fold change vs veh, CNOT2 / RFU, ZNF268 / Fold change vs veh, ZNF268 / Fold change vs veh, ZNF507 / RFU, DGCR2 / Fold change vs veh, DGCR2 / RFU, WDSUB1 / Fold change vs veh, WDSUB1 / Fold change vs veh, HSP90B1 /// MIR3652 / RFU, ADSS / Fold change vs veh, ADSS / RFU, GK / Fold change vs veh, GK / RFU, ZNF148 / Fold change vs veh, ZNF148 / RFU, TAF9 / Fold change vs veh, TAF9 / RFU, SLC1A5 / Fold change vs veh, SLC1A5 / RFU, SLMO2 / Fold change vs veh, SLMO2 / RFU, ABCC4 / Fold change vs veh, ABCC4 / RFU, LOC101060439 /// RAP1B / Fold change vs veh, LOC101060439 /// RAP1B / RFU, RFX7 / Fold change vs veh, RFX7 / RFU, GTPBP10 / Fold change vs veh, GTPBP10 / RFU, CNEP1R1 / Fold change vs veh, CNEP1R1 / RFU, BIVM-ERCC5 /// ERCC5 / Fold change vs veh, BIVM-ERCC5 /// ERCC5 / RFU, ILF3 / Fold change vs veh, ILF3 / RFU 11762660_at / Fold change /veh 11762660_at / RFU VCAN (11757783_s_at) / Fold change /veh VCAN (11757783_s_at) / RFU DDX43 (11728927_at) / Fold change /veh DDX43 (11728927_at) / RFU KRT8 (11758188_x_at) / Fold change /veh KRT8 (11758188_x_at) / RFU NKD1 (11759106_at) / Fold change /veh NKD1 (11759106_at) / RFU SRD5A1 (11742802_a_at) / Fold change /veh SRD5A1 (11742802_a_at) / RFU TPSAB1 /// TPSB2 (11721975_s_at) / Fold change /veh TPSAB1 /// TPSB2 (11721975_s_at) / RFU GSTM3 (11746129_a_at) / Fold change /veh GSTM3 (11746129_a_at) / RFU IL23R (11737362_x_at) / Fold change /veh IL23R (11737362_x_at) / RFU TMEM51 (11727254_a_at) / Fold change /veh TMEM51 (11727254_a_at) / RFU PIWIL2 (11732686_x_at) / Fold change /veh PIWIL2 (11732686_x_at) / RFU ORM1 (11744905_x_at) / Fold change /veh ORM1 (11744905_x_at) / RFU CCDC152 (11743942_at) / Fold change /veh CCDC152 (11743942_at) / RFU ECM1 (11717891_a_at) / Fold change /veh ECM1 (11717891_a_at) / RFU IL23R (11748794_a_at) / Fold change /veh IL23R (11748794_a_at) / RFU TNFAIP8L3 (11732012_x_at) / Fold change /veh TNFAIP8L3 (11732012_x_at) / RFU MBOAT4 (11741988_at) / Fold change /veh MBOAT4 (11741988_at) / RFU 11764193_at / Fold change /veh 11764193_at / RFU TMEM53 (11763286_at) / Fold change /veh TMEM53 (11763286_at) / RFU MAGEB2 (11727129_at) / Fold change /veh MAGEB2 (11727129_at) / RFU TMEM200A (11744735_a_at) / Fold change /veh TMEM200A (11744735_a_at) / RFU CCDC152 (11751479_a_at) / Fold change /veh CCDC152 (11751479_a_at) / RFU FAM211A (11726209_a_at) / Fold change /veh FAM211A (11726209_a_at) / RFU RGS16 (11746705_a_at) / Fold change /veh RGS16 (11746705_a_at) / RFU VCAN (11755009_s_at) / Fold change /veh VCAN (11755009_s_at) / RFU RHOB (11743442_s_at) / Fold change /veh RHOB (11743442_s_at) / RFU RGS16 (11720943_a_at) / Fold change /veh RGS16 (11720943_a_at) / RFU RGS16 (11720944_at) / Fold change /veh RGS16 (11720944_at) / RFU, VPS4B / Fold change vs veh, VPS4B / RFU, CREB1 / Fold change vs veh, CREB1 / RFU, DNAJC13 / Fold change vs veh, DNAJC13 / RFU, GNAQ / Fold change vs veh, GNAQ / RFU, CDK5R1 / Fold change vs veh, CDK5R1 / RFU, ZRANB3 / Fold change vs veh, ZRANB3 / RFU, CUL4A / Fold change vs veh, CUL4A / RFU, CCNY / Fold change vs veh, CCNY / RFU, UFL1 / Fold change vs veh, UFL1 / RFU, COG3 / Fold change vs veh, COG3 / RFU, DIAPH2 / Fold change vs veh, DIAPH2 / RFU, SKA2 / Fold change vs veh, SKA2 / RFU, AFF3 / Fold change vs veh, AFF3 / RFU, LMF1 / Fold change vs veh, LMF1 / RFU, IPO11 / Fold change vs veh, IPO11 / RFU, DFFB / Fold change vs veh, DFFB / RFU, FOXP1 / Fold change vs veh, FOXP1 / RFU, CARD8 / Fold change vs veh, CARD8 / RFU, STRN3 / Fold change vs veh, STRN3 / RFU, ADK / Fold change vs veh, ADK / RFU, RASSF2 / Fold change vs veh, RASSF2 / RFU, WIPF1 / Fold change vs veh, WIPF1 / RFU, LARP1B / Fold change vs veh, LARP1B / RFU, RASA1 / Fold change vs veh, RASA1 / RFU, RB1 / Fold change vs veh, RB1 / RFU, PPFIA1 / Fold change vs veh, PPFIA1 / RFU, MAT2A / Fold change vs veh, MAT2A / RFU, CCT5 / Fold change vs veh, CCT5 / RFU, WDR92 / Fold change vs veh, WDR92 / RFU, CUX1 / Fold change vs veh, CUX1 / RFU, TTC7A / Fold change vs veh, TTC7A / RFU, TMEM135 / Fold change vs veh, TMEM135 / RFU, DEPTOR / Fold change vs veh, DEPTOR / RFU, CPM / Fold change vs veh, CPM / RFU, DNAJB6 / Fold change vs veh, DNAJB6 / RFU, CACNA2D3 / Fold change vs veh, CACNA2D3 / RFU, DTX4 / Fold change vs veh, DTX4 / RFU, TFCP2 / Fold change vs veh, TFCP2 / RFU, GMCL1 /// GMCL1P1 / Fold change vs veh, GMCL1 /// GMCL1P1 / RFU, AEBP2 / Fold change vs veh, AEBP2 / RFU, SNHG1 /// SNORD22 /// SNORD25 /// SNORD26 /// SNORD27 /// SNORD28 /// SNORD29 /// SNORD31 / Fold change vs veh, SNHG1 /// SNORD22 /// SNORD25 /// SNORD26 /// SNORD27 /// SNORD28 /// SNORD29 /// SNORD31 / Fold change (Aza/veh), C12orf56 (ProbeSet 11735607_a_at) / Fold change (ACY-1035/veh), C12orf56 (ProbeSet 11735607_a_at) / Fold change (Aza/veh), FGFR1OP (ProbeSet 11751329_s_at) / Fold change (ACY-1035/veh), FGFR1OP (ProbeSet 11751329_s_at) / Fold change (Aza/veh), VPS36 (ProbeSet 11739960_a_at) / Fold change (ACY-1035/veh), VPS36 (ProbeSet 11739960_a_at) / RFU SYPL1 (11715823_x_at) / Fold change /veh SYPL1 (11715823_x_at) / RFU IGFBP7 (11715501_s_at) / Fold change /veh IGFBP7 (11715501_s_at) / RFU REEP3 (11722064_at) / Fold change /veh REEP3 (11722064_at) / RFU IGLL1 (11728026_x_at) / Fold change /veh IGLL1 (11728026_x_at): dose or concentration left out as unconfirmed
Settings: MV-4-11 cells, 48 hours

Nc1ccc(-c2cccs2)cc1NC(=O)c1ccc2c(c1)cc(C1CC1)n2CCN1CCOCC1 [ACY-1035]
RFU RGS16 (11720944_at): 40.38 RFU
